Source: patent US9561231B2 (AbbVie Inc., priority 2012, dated 2017)

How the values were obtained:
[1] = target: T1, first (BD1: amino acids K57-E168) bromodomain of BRD4 (Homo sapiens, UniProt O60885); assay: TR-FRET bromodomain binding assay, BRD4 BD1; conditions: TR-FRET assay protocol (A-G, compound concentration range); Ki calculated from IC50, probe Kd and probe concentration; read-out: TR-FRET Binding Ki: BRD4 (BDI_K57-E168)
T1 construct: His-tagged first (BD1: amino acids K57-E168)
Protocol: (§1) A time-resolved fluorescence resonance energy transfer (TR-FRET) assay was used to determine the affinities of compounds of the Examples listed in Table 1 for each bromodomain of BRD4. His-tagged first (BD1: amino acids K57-E168) and second (BD2: amino acids E352-E168) bromodomains of BRD4 were expressed and purified. An Alexa647-labeled BET-inhibitor was used as the fluorescent probe in the assay.
(§2) Compound dilution series were prepared in DMSO via an approximately 3-fold serial dilution from one of the following:
(§3) or 5-fold serial dilution from one of the following:
(§4) Assay method A: 2.5 mM-800 nM
(§5) For Assay methods A, C, D, and F: Compounds were then diluted 6:100 in assay buffer (20 mM Sodium Phosphate, pH 6.0, 50 mM NaCl, 1 mM Ethylenediaminetetraacetic acid, 0.01% Triton X-100, 1 mM DL-Dithiothreitol) to yield 3× working solutions. […] of this solution were added to the assay plate to reach a final volume of 18 μL.
(§6) TR-FRET data were normalized to the means of 24 no-compound controls (“high”) and 8 controls containing 1 μM un-labeled probe (“low”). Percent inhibition was plotted as a function of compound concentration and the data were fit with the 4 parameter logistic equation to obtain IC50s. Inhibition constants (Ki) were calculated from the IC50s, probe Kd and probe concentration. Typical Z′ values were between 0.65 and 0.75.

[2] = target: T2, second (BD2: amino acids E352-E168) bromodomain of BRD4 (Homo sapiens, UniProt O60885); assay: TR-FRET bromodomain binding assay, BRD4 BD2; conditions: TR-FRET assay protocol (A-G, compound concentration range); Ki calculated from IC50, probe Kd and probe concentration; read-out: TR-FRET Binding Ki: BRD4 (BDII_E352-M457)
T2 construct: protocol
Protocol: as §1, §2, §3, §4, §5, §6

Row | Ki [1] | Ki [2] | SMILES
1 | 0.851 µM | 3.43 µM | Cn1nc(-c2ccccc2Oc2ccc(C#N)cc2)ccc1=O [Example 3, 4-[2-(1-methyl-6-oxo-1,6-dihydropyridazin-3-yl)phenoxy]benzonitrile]
2 | 1.34 µM | > 4.08 µM | Cn1nc(-c2ccccc2OC2CCCC2)ccc1=O [Example 4, 6-[2-(cyclopentyloxy)phenyl]-2-methylpyridazin-3(2H)-one]
3 | 4.08 µM | 3.17 µM | Cn1nc(-c2ccccc2Oc2ccccn2)ccc1=O [Example 6, 2-methyl-6-[2-(pyridin-2-yloxy)phenyl]pyridazin-3(2H)-one]
4 | 1.97 µM | 10.4 µM | Cn1nc(-c2ccccc2Oc2ccc(C(F)(F)F)cc2)ccc1=O [Example 7, 2-methyl-6-{2-[4-(trifluoromethyl)phenoxy]phenyl}pyridazin-3(2H)-one]
5 | 8.59 µM | 17.8 µM | Cn1nc(-c2ccccc2Oc2ccc(S(C)(=O)=O)cc2)ccc1=O [Example 8, 2-methyl-6-{2-[4-(methylsulfonyl)phenoxy]phenyl}pyridazin-3(2H)-one]
6 | 10.5 µM | 9.26 µM | Cn1nc(-c2cc([N+](=O)[O-])ccc2Oc2ccccc2)ccc1=O [Example 9, 2-methyl-6-(5-nitro-2-phenoxyphenyl)pyridazin-3(2H)-one]
7 | 13.1 µM | 10.2 µM | Cn1nc(-c2cc(C#N)ccc2Oc2ccccc2)ccc1=O [Example 13, 3-(1-methyl-6-oxo-1,6-dihydropyridazin-3-yl)-4-phenoxybenzonitrile]
8 | 17.8 µM | 16.3 µM | Cn1nc(-c2cc(C(=O)O)ccc2Oc2ccccc2)ccc1=O [Example 15, 3-(1-methyl-6-oxo-1,6-dihydropyridazin-3-yl)-4-phenoxybenzoic acid]
9 | 8.85 µM | 8.58 µM | COc1cc(=O)n(C)nc1-c1cccc(NS(C)(=O)=O)c1 [Example 19, N-[3-(4-methoxy-1-methyl-6-oxo-1,6-dihydropyridazin-3-yl)phenyl]methanesulfonamide]
10 | 5.32 µM | 12.2 µM | COc1cc(=O)n(C)nc1-c1ccccc1Oc1ccc(C#N)cc1 [Example 32, 4-[2-(4-methoxy-1-methyl-6-oxo-1,6-dihydropyridazin-3-yl)phenoxy]benzonitrile]
11 | 8.17 µM | 3.19 µM | COc1cc(=O)n(C)nc1-c1ccccc1Oc1ccc(F)c(Cl)c1 [Example 34, 6-[2-(3-chloro-4-fluorophenoxy)phenyl]-5-methoxy-2-methylpyridazin-3(2H)-one]
12 | 2.39 µM | 1.08 µM | COc1ccc(Oc2ccccc2-c2nn(C)c(=O)cc2OC)cc1 [Example 35, 5-methoxy-6-[2-(4-methoxyphenoxy)phenyl]-2-methylpyridazin-3(2H)-one]
13 | 5.06 µM | 4.43 µM | COc1cc(=O)n(C)nc1-c1ccccc1Oc1cccc(F)c1 [Example 36, 6-[2-(3-fluorophenoxy)phenyl]-5-methoxy-2-methylpyridazin-3(2H)-one]
14 | 6.35 µM | 6.83 µM | COC(=O)COc1cc(=O)n(C)nc1-c1ccccc1Oc1ccccc1 [Example 38, methyl{[1-methyl-6-oxo-3-(2-phenoxyphenyl)-1,6-dihydropyridazin-4-yl]oxy}acetate]
15 | 3.54 µM | 14.6 µM | COc1cc(=O)n(C)nc1-c1ccccc1OC1CCCCC1 [Example 39, 6-[2-(cyclohexyloxy)phenyl]-5-methoxy-2-methylpyridazin-3(2H)-one]
16 | 9.48 µM | 20.1 µM | COc1cc(=O)n(C)nc1-c1ccccc1OCc1ccccn1 [Example 40, 5-methoxy-2-methyl-6-[2-(pyridin-2-ylmethoxy)phenyl]pyridazin-3(2H)-one]

Row | Ki [1] | Ki [2] | SMILES
17 | > 12.9 µM | > 20.3 µM | COc1cc(=O)n(C)nc1-c1ccccc1OCc1ccc2[nH]ncc2c1 [Example 41, 6-[2-(1H-indazol-5-ylmethoxy)phenyl]-5-methoxy-2-methylpyridazin-3(2H)-one]
18 | > 12.6 µM | > 22.2 µM | COc1cc(=O)n(C)nc1-c1ccccc1OCCC1CCCCC1 [Example 42, 6-[2-(2-cyclohexylethoxy)phenyl]-5-methoxy-2-methylpyridazin-3(2H)-one]
19 | > 5.82 µM | > 22.2 µM | COc1cc(=O)n(C)nc1-c1ccccc1OCC1CCN(C(=O)OC(C)(C)C)CC1 [Example 43, tert-butyl 4-{[2-(4-methoxy-1-methyl-6-oxo-1,6-dihydropyridazin-3-yl)phenoxy]methyl}piperidine-1-carboxylate]
20 | 2.71 µM | 5.11 µM | COc1cc(=O)n(C)nc1-c1ccccc1OCC1CCNCC1 [Example 44, 5-methoxy-2-methyl-6-[2-(piperidin-4-ylmethoxy)phenyl]pyridazin-3(2H)-one]
21 | > 5.67 µM | > 11.1 µM | COc1cc(=O)n(C)nc1-c1ccccc1OCc1ccncc1 [Example 45, 5-methoxy-2-methyl-6-[2-(pyridin-4-ylmethoxy)phenyl]pyridazin-3(2H)-one]
22 | 4.39 µM | 18 µM | COc1cc(=O)n(C)nc1-c1ccccc1OCC1CCCC1 [Example 46, 6-[2-(cyclopentylmethoxy)phenyl]-5-methoxy-2-methylpyridazin-3(2H)-one]
23 | 5.28 µM | > 22.2 µM | COc1cc(=O)n(C)nc1-c1ccccc1OCC1CCOCC1 [Example 47, 5-methoxy-2-methyl-6-[2-(tetrahydro-2H-pyran-4-ylmethoxy)phenyl]pyridazin-3(2H)-one]
24 | 9.44 µM | 1.08 µM | COC(=O)C1CCN(c2cc(=O)n(C)nc2-c2ccccc2Oc2ccccc2)C1 (centres unmarked) [Example 48, methyl 1-[1-methyl-6-oxo-3-(2-phenoxyphenyl)-1,6-dihydropyridazin-4-yl]pyrrolidine-3-carboxylate]
25 | 11.6 µM | 6.6 µM | CN1CCN(c2cc(=O)n(C)nc2-c2ccccc2Oc2ccccc2)CC1=O [Example 51, 2-methyl-5-(4-methyl-3-oxopiperazin-1-yl)-6-(2-phenoxyphenyl)pyridazin-3(2H)-one]
26 | 9 µM | 10.5 µM | Cn1nc(-c2ccccc2-c2ccccc2)ccc1=O [Example 52, 6-(biphenyl-2-yl)-2-methylpyridazin-3(2H)-one]
27 | > 11.5 µM | > 14.3 µM | Cn1nc(-c2ccccc2-c2cccc(C#N)c2)ccc1=O [Example 53, 2′-(1-methyl-6-oxo-1,6-dihydropyridazin-3-yl)biphenyl-3-carbonitrile]
28 | 0.448 µM | 0.507 µM | Cc1ccc(-c2cc(=O)n(C)nc2-c2ccccc2Oc2ccccc2)cc1N [Example 64, 5-(3-amino-4-methylphenyl)-2-methyl-6-(2-phenoxyphenyl)pyridazin-3(2H)-one]
29 | 6.79 µM |  | CN1CCC(c2cc(=O)n(C)nc2-c2ccccc2Oc2ccccc2)CC1 [Example 88, 2-methyl-5-(1-methylpiperidin-4-yl)-6-(2-phenoxyphenyl)pyridazin-3(2H)-one]
30 |  | 1.43 µM | Cn1cccc1-c1cc(=O)n(C)nc1-c1ccccc1Oc1ccccc1 [Example 194, 2-methyl-5-(1-methyl-1H-pyrrol-2-yl)-6-(2-phenoxyphenyl)pyridazin-3(2H)-one]
31 |  | 11.8 µM | CN(C)C(=O)c1cncc(-c2cc(=O)n(C)nc2-c2ccccc2Oc2ccccc2)c1 [Example 215, N,N-dimethyl-5-[1-methyl-6-oxo-3-(2-phenoxyphenyl)-1,6-dihydropyridazin-4-yl]pyridine-3-carboxamide]
